Data taken from patent publication US20240415851A1, “REMODILINS TO PREVENT OR TREAT CANCER METASTASIS, GLAUCOMA, AND HYPOXIA” (The University of Chicago, priority 2019, published 2024).
“Also recorded” adds a separate entry of the source. Read-outs that look alike come from different tables or passages of the source.

How the values were obtained:
[1] = tested on: human lung-derived fibroblasts; test: TGFβ-induced myofibroblast transformation (ACTA2, FN1 protein expression); format: cell-based; conditions: 1 ng/mL TGFβ1; 0, 1, 3, or 10 μM remodilin for 2 d; dose-dependent
Experimental: FIG. 1 Remodilins inhibit myofibroblast transformation (MFT). Serum deprived human lung-derived fibroblasts were treated with 1 ng/mL TGFβ1 (or not, left lane) and 0, 1, 3, or 10 μM remodilin for 2 d. Four remodilins each inhibited smooth muscle α-actin (ACTA2) or fibronectin-1 (FN1) protein expression (markers of MFT).

MDA-MB-231 cells [2] = test: Spheroid invasion into collagen gels; format: cell-based, human; conditions: 10 µM remodilin; 48 hrs; collagen 2 mg/mL; DMEM 0.5% FBS; vs 0.1% DMSO
Experimental: FIG. 3 MDA-MB-231 cells were grown into spheroids, then allowed to migrate into collagen gels in DMEM containing 0.5% FBS and remodilin (10 µM remodilin 39 [top row] or remodilin 83 [bottom row]) or diluent (0.1% DMSO) for 48 hrs (representative 48 hr images shown).
(§1) Remodilins 39 and 83 each slowed the invasion of triple negative MDA-MB-231 human breast cancer cells from spheroids into a surrounding collagen gel (FIG. 3), and also slowed the serum-directed invasion MDA-MB-231-derived BM1 cells through Matrigel-coated transwells (FIG. 4). Remodilins 39 and 83 also slowed the migration of MDA-MB-231 cells in a scratch wound healing assay (FIG. 5).

[3] = tested on: MDA-MB-231-derived BM1 cells; test: 10% FBS-directed invasion through Matrigel-coated transwell membrane; format: cell-based, human; conditions: dose-dependent; n=3/condition
From the text: FIG. 4 Remodilins 39 and 83 inhibited 10% FBS-directed invasion migration of MDA-MB-231-derived BM1 cells through a Matrigel-coated transwell mem-brane, in a dose-dependent fashion. Mean+SEM shown; n=3/condition. **P<0.01; ***P<0.001; ****P<0.0001.
as §1

MDA-MB-231 cells [4] = test: Scratch wound healing migration assay; format: cell-based, human; conditions: dose-dependent; 1, 3, 10 uM; n=8 wells/condition
Experimental: Mean+SD shown; n=8 wells/condition. P<0.0001 for 1, 3, & 10 uM remodilin 39 vs DMSO (control) by 2-way ANOVA/Dunnett's.
as §1

MDA-MB-231 cells [5] = test: Alamar blue assay (growth inhibition, cytotoxicity); format: cell-based, human; conditions: concentrations to at least 10 uM
[6] = In vivo PK and oral bioavailability, single dose; conditions: mouse, plasma, wild-type mice, 10 mg/kg single dose
Experimental: (§2) The in vivo bioavailability, plasma half-life, Cmax, and area under the curve (AUC) were determined after administration of single 10 mg/kg doses of remodilins 39 and 83 to mice (Table 1). Selected tissue concentrations of remodilins 39 and 83 after single oral doses of 10 or 50 mg/kg (FIG. 6). The PK properties of these remodilins differ substantially.

[7] = Tissue and plasma concentrations after single oral doses; format: in vivo; conditions: mice
Experimental: FIG. 6 Tissue and plasma remodilin concentrations after single oral doses (filled circles 50 mg/kg; open circles-10 mg/kg). […] The greater oral bioavailability, longer half-life, and inter-tissue variation of remodilin 83 concentration are readily evident. Mean+SEM shown; n=3/condition.
as §2
(§3) PK was re-evaluated after 14 days of intraperitoneal (IP) or oral BID dosing. […] Plasma levels after single or 15 consecutive once-daily IP 10 mg/kg doses of remodilin 39 were examined (FIG. 8). The plasma concentration of 10 μM remodilin 39 corresponds to 5314 ng/mL.

[8] = Tissue concentrations after 14 d BID dosing (IP or PO); format: in vivo; conditions: for concentration at 14 days: liver, lung, intraperitoneal
Experimental: Mean+SEM shown; n=3/condition. Dotted lines show concentration corresponding to 10 μM.
as §3
(§4) In the experiments corresponding to FIG. 7, remodilin 83 was dissolved in 20% Solutol in PBS.

[9] = Lipophilicity and dissolution in vehicles; format: physicochemical
Experimental: as §4

HIF1α [10] = test: TGFβ-induced HIF1α accumulation in fibroblasts; format: cell-based, human; conditions: 48 hrs TGFβ treatment
From the text: (§5) FIG. 12A-12B Remodilins inhibit accumulation of hypoxia-inducible factor-1 alpha (HIF1α) protein. FIG. 12A Effect of remodilin 83 on TGFβ-induced phosphorylation of AKT and ERK1/2 and TGFβ-induced HIF1α accumulation in human fibroblasts. FIG. 12B Both remodilins 39 and 83 inhibited HIF1α accumulation in HEK293 cells exposed to 6 hrs of hypoxia (1% 02).
(§6) The influence of remodilin 83 on HIF-1α accumulation in TGFβ-treated fibroblasts was examined. […] Similarly, both remodilins 39 and 83 inhibited HIF1α accumulation in HEK293 cells exposed to 6 hrs of hypoxia (1% O2; FIG. 12B). […] N—normoxia; H—hypoxia.

AKT = test: TGFβ-induced AKT phosphorylation in fibroblasts; format: cell-based; conditions: human fibroblasts
From the text: as §5, §6

ERK1/2 = test: TGFβ-induced ERK1/2 phosphorylation in fibroblasts; format: cell-based; conditions: human fibroblasts
From the text: as §5, §6

HIF1α [11] = test: Hypoxia-induced HIF1α accumulation in HEK293 cells; format: cell-based; conditions: 6 hrs steady hypoxia (1% oxygen); 3 μM or 10 µM
From the text: as §5, §6

HIF1α [12] = test: Hypoxia-induced HIF1α accumulation in HEK293T cells (Western blot); format: cell-based; conditions: 6 hrs steady hypoxia; 3 or 10 μM
From the text: FIG. 14A-14B Remodilins' effects on hypoxia-induced accumulation of HIF1α. […] FIG. 14B HIF1α was absent in cells ex-posed to 6 hrs normoxia (N).
OSA is a chronic, morbid disease affecting about 10% of the adult population, in which frequent episodes of upper airway collapse obstruct inspiratory airflow and cause IH. These episodes of IH disrupt sleep but perhaps more importantly accelerate multiple cardiometabolic abnormalities, including systemic hypertension, cardiovascular disease, stroke, and abnormal glucose metabolism. Therefore, remodilins were examined for their ability on inhibit hypoxia-induced accumulation of HIF1α, a transcription factor that mediates many of the adverse responses to IH.

[13] = tested on: A549 lung adenocarcinoma cells; test: Oxygen consumption rate and extracellular acidification rate; format: cell-based; conditions: treated at time=30 min
Experimental: FIG. 13A-13B Effect of remodilin 83 on oxygen consumption rate (OCR) and extracellular acidification rate (ECAR). FIG. 13A A549 cells were treated with remodilin 83 (open circles) or its vehicle (filled circles) at time=30 min, and oxygen consumption rate (OCR) was continuously measured over time. FIG. 13B A549 cells were treated with remodilin 83 (open circles) or its vehicle (filled circles) at time=30 min, and extracellular acidification rate (ECAR) was measured continuously over time. Cells were sequentially treated with oligomycin (ATP synthase inhibitor), FCCP (uncoupler) and antimycin A/rotenone (A+R) (complex III and I inhibitor).
A549 cells were treated with remodilin 83 (open circles) or its vehicle (filled circles) at time=30 min, and oxygen consumption rate (OCR) and extracellular acidification rate (ECAR) were measured continuously over time. Cells were sequentially treated with oligomycin (ATP synthase inhibitor), FCCP (uncoupler) and antimycin A/rotenone (A+R) (complex III and I inhibitor).

Sprague Dawley rats = test: Intermittent hypoxia (IH)-induced systemic hypertension; format: in vivo
Experimental: FIG. 15A-15B Remodilin's effect on hypertension and weight. […] N=2/group; DO-Day 0 (prior to IH), D11-Day 11.
Remodilins were tested for their ability to inhibit the systemic hypertension induced in rats subjected to IH in vivo.

CC1CN(S(=O)(=O)c2ccc(NC(=O)c3ccc(Br)c(I)c3)cc2)CCN1 (centres unmarked) [Remodilin 83, 4-Bromo-3-iodo-N-(4-((3-methylpiperazin-1-yl)sulfonyl)phenyl)benzamide]
TGFβ-stimulated transformation of human lung-derived fibroblasts to myofibroblast phenotype (ACTA2 or FN1 protein expression) [1]: blunt TGFβ-stimulated transformation | invasion of MDA-MB-231 cells from spheroids into collagen gels (MDA-MB-231 cells [2]): inhibited invasion | 10% FBS-directed invasion migration of BM1 cells through Matrigel-coated transwell membrane [3]: inhibited | migration of confluent MDA-MB-231 cells into circular scratch wound (MDA-MB-231 cells [4]): inhibited migration | growth inhibition or cytotoxicity by Alamar blue assay (MDA-MB-231 cells [5]): Neither remodilin is growth-inhibitory or cytotoxic | bioavailability ([6]; po): 22% | AUC [6]: 1300 ng·h/mL | Cmax [6]: 0.38 µM | half-life [6]: 8.4 h | maintenance of tissue or plasma levels above 10 μM throughout the day ([7]; single oral doses): did not maintain tissue or plasma levels above 10 μM throughout the day | tissue distribution ([7]; single oral doses of 10 or 50 mg/kg (FIG. 6)): highly preferentially distributed to the lung | variation of tissue concentrations over the 12-hour dosing period, IP ([8]; after 14 d BID dosing, given IP): relatively steady within each tissue | variation of tissue concentrations over the 12-hour dosing period, PO ([8]; after 14 d BID dosing, given PO): greater variation over time | Brain levels ([8]; after 14 days BID dosing): low | concentration at 14 days ([8]; female, Balb/c, mouse, heart, kidney, 40 mg/kg BID IP, 14 days, read-out: levels in liver, heart, lung, and kidney): ~10 µM | mortality or gross clinical evidence of toxicity ([8]; mouse, in vivo): no mortality or gross clinical evidence of toxicity | concentration at 14 days ([8]; mouse, 14-day 40 mg/kg BID IP in 20% Solutol, female Balb/c mice, read-out: liver and lung concentrations): < 10 µM | lipophilicity / lipid solubility [9]: lipophilic; also recorded: highly lipid soluble | dissolution in 20% Solutol or DMSO ([9]; 20% Solutol or DMSO): readily dissolved | TGFβ-induced HIF1α accumulation in human fibroblasts (HIF1α [10]): this response was absent | TGFβ-induced AKT phosphorylation (AKT): inhibited TGFβ-induced AKT phosphorylation | TGFβ-induced ERK1/2 phosphorylation (ERK1/2): not TGFβ-induced ERK1/2 phosphorylation | HIF1α accumulation in HEK293 cells exposed to hypoxia (HIF1α [11]): blunted HIF1α accumulation substantially | HIF1α accumulation in HEK293T cells exposed to hypoxia (HIF1α [12]): inhibit the accumulation of HIF1α | extracellular acidification rate (ECAR), marker of glycolysis [13]: decreases both mitochondrial respiration and glycolysis | oxygen consumption rate (OCR), mitochondrial respiration [13]: decreases both mitochondrial respiration and glycolysis | systemic hypertension induced by 10 days of IH (8 hrs/day) (Sprague Dawley rats; 20 mg/kg BID IP, N=2/group): blocks the systemic hypertension | health as judged by clinical observation or weight gain (Sprague Dawley rats; D0 to D11): no obvious effect on health | blood pressure in rats unexposed to IH (Sprague Dawley rats; N=2/group): little effect on blood pressure
